According to patent publication US20260364213A1, “RADIOLABELED COMPOUNDS OF TRIMETHOPRIM AND USES THEREOF” (THE TRUSTEES OF THE UNIVERSITY OF PENNSYLVANIA, priority 2023, published 2026):
“Also recorded” adds a separate entry of the source.

What was measured:
Serum stability in FBS = type: in vitro ADME; conditions: FBS at 37 °C, 72 hours, radio-TLC
Method: In vitro serum stability of was performed by adding the [^131I]mI-TMP (50 μL, 1.85 MBq) to fetal bovine serum (500 μL). The mixture was then incubated in a ThermoMixer (800 rpm) at 37 °C, and deiodination was analyzed by radio-TLC (10% NH40Ac:MeOH=3:7) at 0, 24, and 72 h. In this condition, free I-131 moved to solvent front whereas intact [^131I]I-TMP remained at the origin.

eDHFR [1] = biological target: T1, eDHFR (Escherichia coli, UniProt P0ABQ4); conditions: eDHFR+ cells pre-incubated with 10 μM unlabeled TMP
T1 sequence (P0ABQ4 1-159): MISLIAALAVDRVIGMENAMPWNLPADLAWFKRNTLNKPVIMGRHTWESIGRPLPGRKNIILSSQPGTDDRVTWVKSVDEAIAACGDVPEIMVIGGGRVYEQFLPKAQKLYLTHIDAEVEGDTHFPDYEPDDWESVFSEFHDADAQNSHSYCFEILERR

eDHFR [2] = biological target: T1, eDHFR; type: cell-based; conditions: I45 mesothelioma cells, eDHFR-FLAG vs WT; 60 min at 37 °C
Excerpt: See, FIG. 1E. […] See, FIG. 1F.

HCT116 tumor cells = assay: Radiotherapy of HCT116 tumor-bearing athymic nude mice; type: in vivo, human
Excerpt: Tumor size measurements were taken using calipers from day 1 to 14 post-injection of the [^131I]mI-TMP to monitor the response of radiation therapy. […] See, FIG. 11 and FIG. 12.
To evaluate the therapeutic potential [^131I]mI-TMP, sixteen (16) 8- to 12-week-old female athymic nude mice (Charles River Laboratories) were inoculated with 1×10^7 HCT116 tumor cells (eDHFR+ or WT) on the left shoulder. The mice were then divided into two groups: […] (8) mice with HCT116-eDHFR (eDHFR-positive cells) and Eight (8) mice with HCT116-WT (eDHFR-negative) cells.
Three (3) of the five (5) mice from each cohort were imaged at 3- and 24-hours post [^131I]mI-TMPI radiotherapy injection using small animal SPECT and CT instruments. Five (5) mice from each cohort (which included the 3 imaged mice from each cohort) were then monitored for 14 days using caliper measurements and IVIS imaging.

I45 eDHFR-FLAG tumors [3] = assay: Biodistribution in I45 tumor-bearing CD1 nude mice; type: in vivo, human; conditions: 24 hours
Method: (§1) RLT in I45 tumors. […] Briefly, I45 eDHFR-FLAG and WT cells were xenografted into the shoulders of female athymic CD1-Foxn1nu mice. The tumors were allowed to grow for ~2 weeks. Subsequently, [^131I]I-TMP was administered intravenously and a limited biodistribution study was performed. […] To assess for cytotoxicity in I45 mesothelioma cells, I45 WT and I45 eDHFR tumors were separately xenografted into CD1-Foxn1nu mice and either [^131I]I-TMP or saline was administered to form 4 experimental cohorts (n=7).
(v) In vivo I45 eDHFR-FLAG Tumor Model. Female CD1 nu/nu mice, aged six to eight weeks, were subject to subcutaneous xenografting. Specifically, I45 eDHFR-Flag cells (1×10^6 cells/mouse) were suspended in a solution comprising equal volumes of 75 μL RPMI complete medium and 75 μL Matrigel Matrix (Corning, 354234) for implantation on the shoulder.

I45 eDHFR-FLAG tumors [4] = assay: I45 RLT, tumor growth in CD1 nude mice; type: in vivo, human; conditions: 18.5 MBq/mouse i.v. single dose, n=7; listed as [^131I]I-TMP
Method: as §1
[^131I]I-TMPI Administration, and Monitoring. Female CD1 nu/nu mice, aged six to eight weeks, underwent subcutaneous xenografting with 1×10^6 I45 WT and I45 eDHFR-Flag cells on the shoulder. The cells were suspended in a 1:1 volume ratio of 75 μL RPMI complete medium and 75 μL Matrigel Matrix (Corning, 354234). Both I45 WT and I45 eDHFR-Flag mice were randomly divided into two groups, with each group consisting of 7 mice. Tumors were grown for 2 weeks. […] [^131I]I-TMP, diluted in 100 μL saline, was injected into two groups containing I45 WT and I45 eDHFR-Flag xenografts on day 9 of initial tumor inoculation. The remaining two groups of I45 WT and I45 eDHFR-Flag xenografts were injected with saline. Tumor growth was monitored from two days before to 10 days after [^131I]I-TMP injection, with measurements taken every other day using calipers. […]

SMILES	serum stability, deiodination (Serum stability in FBS)	uptake under blocked conditions (eDHFR [1])	uptake in eDHFR+ cells compared to wild type (eDHFR [2])	tumor size, eDHFR-Luc tumors (HCT116 tumor cells; 18.5 MBq (500 μCi) i.v. tail vein, caliper, day 1 to 14)	tumor size, eDHFR-negative tumors (HCT116 tumor cells; 18.5 MBq (500 μCi) i.v., day 7 to day 14)	presence in eDHFR+ tumors (I45 eDHFR-FLAG tumors [3]; 18.5 MBq i.v.)	uptake in eDHFR tumors compared to WT tumors (I45 eDHFR-FLAG tumors [3])	washout from eDHFR tumors (I45 eDHFR-FLAG tumors [3])	tumor growth / in vivo cytotoxicity, I45 eDHFR tumors (I45 eDHFR-FLAG tumors [4])
COc1cc(Cc2cnc(N)nc2N)cc(I)c1OC [[^131I]mI-TMP, 5-(3-iodo-4,5-dimethoxybenzyl)pyrimidine-2,4-diamine]	without any detectable deiodination	reduced uptake	–	–	–	–	–	–	–
COc1cc(Cc2cnc(N)nc2N)cc([131I])c1OC [[^131I]mI-TMP, 5-(3-iodo-4,5-dimethoxybenzyl)pyrimidine-2,4-diamine]	–	–	~ 80 fold	reduction in tumor size at day 7 post-injection, which remained stable until day 10 but increased by day 14	continued to grow from day 7 to day 14	present in eDHFR+ tumors, even after 24 hours	over 1000 fold	without substantial washout	clear reduction in tumor growth; also recorded: shows in vivo cytotoxicity toward eDHFR-expressing I45 cells
